Results reported in patent US6825230B2, “Spiro and dispiro 1,2,4-trixolane antimalarials” (Medicines for Malaria Venture MMV, priority 2002, dated 2004).
≈ marks a conversion by molar mass, not a printed value.

How the values were obtained:
[1] = test system: ANKA strain of P. berghei; test: Single dose STI in vivo screen in infected mice; set-up: species or system Plasmodium berghei; conditions: for Survival (days) 3 mg/kg SSV po / Activity (%) 3 mg/kg SSV po: single 3 mg/kg po in SSV; for Survival (days) 10 mg/kg SSV po: single 10 mg/kg po in SSV; for Activity (%) 10 mg/kg SSV po: single 10 mg/kg po in standard suspending vehicle (SSV) on day 1 post-infection
P. berghei ANKA strain [2] = test: Divided 3x10 mg/kg vs single 1x30 mg/kg po dose in infected mice; format: in vivo, Plasmodium berghei; conditions: for Survival (days) 3 × 10 mg/kg p.o. SSV / Activity (%) 3 × 10 mg/kg p.o. SSV: 10 mg/kg po on days 1, 2, 3 post-infection
Description: (§1) Moro NMRI male mice (Fu Albino specific pathogen free) weighing 18±2 g were infected intravenously (i.v.) with 2×10^7 P. berghei ANKA strain-infected erythrocytes from donor mice on day 0 of the experiment. From donor mice with circa 30% parasitemia, heparinized blood was taken and diluted in physiological saline to 10^8 parasitized erythrocytes per ml. An aliquot (0.2 ml) of this suspension was injected i.v. into experimental and control groups of mice. […] Throughout the experiments, mice were kept in groups of three or five animals in Makrolon type II cages in an air-conditioned animal room at 22 to 23° C.
(§2) They were administered per os (p.o.) in a total volume of 0.01 ml per gram of mouse. The activity of the compound was determined by a variety of methods outlined in subsequent sections. Survival time was also recorded, and survival to day 30 post-infection was considered to be a cure.
The first experiment conducted consisted of administration of a divided 3×10 mg/kg p.o. dose administered on days 1, 2, and 3 post-infection vs. a single 1×30 mg/kg po dose administered on day 1 post-infection. On day 4 post-infection, blood smears of all animals were prepared and stained with Giemsa. […] Compounds were administered orally in the SSV vehicle.

P. berghei ANKA strain [3] = test: Divided 3x3 mg/kg and 3x1 mg/kg po doses in infected mice; format: in vivo, Plasmodium berghei; conditions: for Cures: 3 mg/kg, 720 h
Description: as §1, §2
The second experiment consists of administration of divided 3×3 mg/kg and 3×1 mg/kg po doses administered on days 1, 2, and 3 post-infection. On day 4 post-infection, blood smears of all animals were prepared and stained with Giemsa. […] Compounds were administered orally in the SSV vehicle.

[4] = test system: chloroquine-resistant K1 strain of P. falciparum; test: In vitro antimalarial semiautomated microdilution assay ([3H]-hypoxanthine incorporation), K1 strain; format: cell-based, Plasmodium falciparum; conditions: Plasmodium falciparum; chloroquine-resistant K1 strain, 72 h incubation; read-out: IC50 (ng/ml) K1
How it was run: (§3)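 Semiautomated microdilution against intraerythrocytic P. falciparum from asynchronous stock cultures, with growth tracked by [3H]-hypoxanthine incorporation. IC50 values were estimated by Logit regression analysis.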

[5] = test system: chloroquine-sensitive NF54 strain of P. falciparum; test: In vitro antimalarial semiautomated microdilution assay ([3H]-hypoxanthine incorporation), NF54 strain; format: cell-based, Plasmodium falciparum; conditions: Plasmodium falciparum; chloroquine-sensitive NF54 strain, 72 h incubation; read-out: IC50 (ng/ml) NF54
How it was run: as §3

[6] = test system: Schistosoma mansoni adult worms (49-day-old); test: Effect on adult schistosomes (49-day-old) in infected mice; format: in vivo; conditions: single 400 mg/kg per os; for % reduction of adult worms growth at day 49 after per os application of 400 mg/kg, TWR (%): 49-day-old adults, total worm reduction rate; for Adult worms day 49, per os 400 mg/kg, DEAD WORM (%): percentage of dead worm in the liver
Description: Mice were infected with 100 Schistosoma mansoni cercariae on day 49 post-treatment. Each group was treated per os with OZ compounds at single doses of 200, 400, and 600 mg/kg. Untreated mice served as the control. All groups were killed 4 weeks after treatment and the liver and intestine were removed and separated. The liver and intestine were compressed and alive male and female worms could be seen and counted.

[7] = Pharmacokinetics in rats (IV and oral dosing); conditions: rat, in vivo
Text: (§4) Artesunate is listed as a reference compound.

[8] = Pharmacokinetics in dogs (IV and oral dosing); conditions: in vivo, dog; for bioavailability: some values marked (V), not defined
Text: as §4

P. berghei ANKA strain [9] = test: Prophylactic activity, single 100 mg/kg po at various times before infection; format: in vivo, Plasmodium berghei; conditions: for Prophylactic Activity (%) 72 h: po, 100 mg/kg; for Prophylactic Activity (%) 24 h: single 100 mg/kg po 24 h before infection; for Prophylactic Activity (%) 24 h / Prophylactic Activity (%) 48 h / Prophylactic Activity (%) 0 h: parasitemia reduction on day 3 post-infection; for Prophylactic Activity (%) 48 h: single 100 mg/kg po 48 h before infection; for Prophylactic Activity (%) 0 h: single 100 mg/kg po at 0 h
Description: as §1
Prophylactic activities of the compounds were compared after administering po single dose of 100 mg/kg to different groups of five animals at various times before infection. All groups including an untreated control group, were then infected at the same time. Parasitemia was determined for each animal on day 3 post-infection, and percent of reduction of the level of parasitemia compared to levels for animals given no drug is determined.

P. berghei ANKA strain [10] = test: Onset of action and recrudescence experiment, single 100 mg/kg po; format: in vivo, Plasmodium berghei; conditions: single 100 mg/kg po (SSV) on day +3 post-infection; recrudescence = >5% parasitemia; followed up to 60 days; groups of five
Description: The onset of drug action was determined after a single fixed dose of 100 mg/kg (SSV vehicle) po to groups of five animals on day +3 post-infection (day 0).
as §1

[11] = percent reduction in parasitemia on day 3
[12] = 3 × 1 mg/kg p.o. SSV on days 1, 2, 3 post-infection
[13] = 3 × 3 mg/kg p.o. SSV on days 1, 2, 3 post-infection
[14] = 3 × 3 mg/kg p.o. SSV on days 1, 2, 3 post-infection, percent reduction of parasitemia vs control on day 4

Structure (SMILES) | Survival (days) 3 mg/kg SSV po [1] [days] | Activity (%) 3 mg/kg SSV po [1, 11] [%] | Survival (days) 10 mg/kg SSV po ([1]; untreated 6-7 days) [days] | Activity (%) 10 mg/kg SSV po [1, 11] [%] | Survival (days) 3 × 10 mg/kg p.o. SSV (P. berghei ANKA strain [2]) [days] | Activity (%) 3 × 10 mg/kg p.o. SSV (P. berghei ANKA strain [2]; parasitemia reduction on day 4) [%] | Survival (P. berghei ANKA strain [3]; [12]) [days] | Survival (P. berghei ANKA strain [3]; [13]) [days] | Activity (%) (P. berghei ANKA strain [3]; [14]) | Activity (%) (P. berghei ANKA strain [3]; po, 1 mg/kg, 96 h) | Cures (P. berghei ANKA strain [3]; po) | IC50 [4] [ng/mL] | IC50 [5] [ng/mL] | % reduction of adult worms growth at day 49 after per os application of 400 mg/kg, TWR (%) [6] [%] | Adult worms day 49, per os 400 mg/kg, DEAD WORM (%) [6] [%] | Prophylactic Activity (%) 72 h (P. berghei ANKA strain [9]) [%] | Prophylactic Activity (%) 24 h (P. berghei ANKA strain [9]) [%] | Prophylactic Activity (%) 48 h (P. berghei ANKA strain [9]) [%] | Prophylactic Activity (%) 0 h (P. berghei ANKA strain [9]) [%] | also measured
Cc1ccc(S(=O)(=O)O)cc1.N[C@H]1CC[C@H](NC(=O)C[C@H]2CC[C@]3(CC2)OO[C@]2(O3)C3CC4CC(C3)CC2C4)CC1 [OZ315] | 9.6 | 92 | 11.2 | 99.97 | >30 | 100 | 12.2 | 22 | 99.99 | 81 | 0\5 |  |  |  |  |  |  |  |  | 
NC(=O)CNC[C@H]1CC[C@]2(CC1)OOC1(O2)C2CC3CC(C2)CC1C3 (stereo partly drawn) [OZ256] |  |  | 8.7 | 99.67 |  |  |  |  |  |  |  | 0.3 (≈ 0.856 nM) | 0.2 (≈ 0.571 nM) | 10 | 19 | 13 | 82 | 29 | 100 | Survival (days) 10 mg/kg po ([1]; single 10 mg/kg po in 3% ethanol and 7% Tween 80, untreated 6-7 days): 8.7 days; Activity (%) 10 mg/kg po ([1]; single 10 mg/kg po in 3% ethanol and 7% Tween 80 on day 1 post-infection, percent reduction in parasitemia on day 3): 99.70%; Survival (days) 10 mg/kg sc ([1]; single 10 mg/kg sc in 3% ethanol and 7% Tween 80, untreated 6-7 days): 9.7 days; Activity (%) 10 mg/kg sc ([1]; single 10 mg/kg sc in 3% ethanol and 7% Tween 80 on day 1 post-infection, percent reduction in parasitemia on day 3): 99.95%; half-life ([7]; iv, 10 mg/kg): 94 min; bioavailability ([7]; po, 10 mg/kg): 18.6%; bioavailability ([7]; po, 25 mg/kg): 51.9%; half-life ([7]; po, 25 mg/kg): 73.3 min; half-life ([8]; IV 10 mg/kg): 85.4 min; half-life ([8]; oral 10 mg/kg): 82.8 min; bioavailability ([8]; oral 10 mg/kg, read-out: Dog Oral Bioavailability 10 mg/kg): 42%; bioavailability ([8]; oral 25 mg/kg, read-out: Dog Oral Bioavailability 25 mg/kg): 38.3%
NCC(=O)NC[C@H]1CC[C@]2(CC1)OO[C@]1(O2)C2CC3CC(C2)CC1C3 [OZ271] | 8.6 | 99.52 | 8.7 | 99.93 | 27.8 | 100 | 8.8 | 16.2 | 99.99 | 87 | 0\5 | 0.36 (≈ 1.03 nM) | 0.29 (≈ 0.827 nM) | 0 | 6 | 99.89 | 100 | 99.98 | 100 | Survival (days) 1 × 30 mg/kg p.o. SSV (P. berghei ANKA strain [2]; single 30 mg/kg po on day 1 post-infection): 14 days; Activity (%) 1 × 30 mg/kg p.o. SSV (P. berghei ANKA strain [2]; single 30 mg/kg po on day 1 post-infection, parasitemia reduction on day 4): 99.97%; Cures 1 × 30 mg/kg p.o. SSV (P. berghei ANKA strain [2]; single 30 mg/kg po, cure = survival to day 30 post-infection): 0/5; Duration of prophylactic protection (P. berghei ANKA strain [9]; single 100 mg/kg po): 3 days
CCO[C@H]1O[C@@H]2O[C@@]3(C)CC[C@H]4[C@H](C)CC[C@@H]([C@H]1C)[C@@]24OO3 [Arteether, arteether, reference compound] |  |  |  |  |  |  |  |  |  |  |  |  |  |  |  |  |  |  |  | Time of Recrudescence (P. berghei ANKA strain [10]): 11.4 days
CC(C)(N)C(=O)NC[C@H]1CC[C@]2(CC1)OOC1(O2)C2CC3CC(C2)CC1C3 (stereo partly drawn) [OZ281] |  | 96 | 8.7 | 99.87 |  |  | 13 | 12.4 | 100 | 92 | 0\5 | 0.5 (≈ 1.32 nM) | 0.3 (≈ 0.793 nM) | 12 | 15 | 8 | 99.23 | 45 | 100 | 
c1cc(OC[C@H]2CC[C@]3(CC2)OO[C@]2(O3)C3CC4CC(C3)CC2C4)ccn1 [OZ301] | 8.4 | 97 | 11.8 | 100 | >30 | 100 | 8.8 | 23 | 100 |  |  |  |  |  |  |  |  |  |  | Cured infected mice at the 3×3 mg/kg dose (P. berghei ANKA strain [3]; 3 mg/kg po (SSV) on days 1, 2, 3 post-infection): 1/5; Activity (%) (P. berghei ANKA strain [3]; 3 × 1 mg/kg p.o. SSV on days 1, 2, 3 post-infection, percent reduction of parasitemia vs control on day 4): 58%
